pEC50: −log10 of the molar value. Read-outs that look alike come from different tables or passages of the source.
Columns and labels:
[1] = amide bond, 13-membered ring, CDMT/NMM, DMF
[2] = molecular target: T1, CFTR (F508del/MF-HBE cells) (Homo sapiens, UniProt P13569, DEL508-508); test: Ussing chamber assay of CFTR-mediated short-circuit currents, Assay A (0.1 μM to 25 μM, 6 concentrations); assay type: cell-based; settings: with 33 nM potentiator and 18 μM Tezacaftor, 20% human serum; for Emax: 18-24 hours, read-out: A Max activity (%)
T1 construct: human bronchial epithelial (HBE) cells derived from CF subjects heterozygous for F508del and a minimal function CFTR mutation (F508del/MF-HBE); endogenous in cells; host or cells: Primary human bronchial epithelial cells from CF subjects (F508del/MF genotype), differentiated at an air-liquid interface
T1 sequence (P13569 with tags, fused parts or gaps DEL508-508): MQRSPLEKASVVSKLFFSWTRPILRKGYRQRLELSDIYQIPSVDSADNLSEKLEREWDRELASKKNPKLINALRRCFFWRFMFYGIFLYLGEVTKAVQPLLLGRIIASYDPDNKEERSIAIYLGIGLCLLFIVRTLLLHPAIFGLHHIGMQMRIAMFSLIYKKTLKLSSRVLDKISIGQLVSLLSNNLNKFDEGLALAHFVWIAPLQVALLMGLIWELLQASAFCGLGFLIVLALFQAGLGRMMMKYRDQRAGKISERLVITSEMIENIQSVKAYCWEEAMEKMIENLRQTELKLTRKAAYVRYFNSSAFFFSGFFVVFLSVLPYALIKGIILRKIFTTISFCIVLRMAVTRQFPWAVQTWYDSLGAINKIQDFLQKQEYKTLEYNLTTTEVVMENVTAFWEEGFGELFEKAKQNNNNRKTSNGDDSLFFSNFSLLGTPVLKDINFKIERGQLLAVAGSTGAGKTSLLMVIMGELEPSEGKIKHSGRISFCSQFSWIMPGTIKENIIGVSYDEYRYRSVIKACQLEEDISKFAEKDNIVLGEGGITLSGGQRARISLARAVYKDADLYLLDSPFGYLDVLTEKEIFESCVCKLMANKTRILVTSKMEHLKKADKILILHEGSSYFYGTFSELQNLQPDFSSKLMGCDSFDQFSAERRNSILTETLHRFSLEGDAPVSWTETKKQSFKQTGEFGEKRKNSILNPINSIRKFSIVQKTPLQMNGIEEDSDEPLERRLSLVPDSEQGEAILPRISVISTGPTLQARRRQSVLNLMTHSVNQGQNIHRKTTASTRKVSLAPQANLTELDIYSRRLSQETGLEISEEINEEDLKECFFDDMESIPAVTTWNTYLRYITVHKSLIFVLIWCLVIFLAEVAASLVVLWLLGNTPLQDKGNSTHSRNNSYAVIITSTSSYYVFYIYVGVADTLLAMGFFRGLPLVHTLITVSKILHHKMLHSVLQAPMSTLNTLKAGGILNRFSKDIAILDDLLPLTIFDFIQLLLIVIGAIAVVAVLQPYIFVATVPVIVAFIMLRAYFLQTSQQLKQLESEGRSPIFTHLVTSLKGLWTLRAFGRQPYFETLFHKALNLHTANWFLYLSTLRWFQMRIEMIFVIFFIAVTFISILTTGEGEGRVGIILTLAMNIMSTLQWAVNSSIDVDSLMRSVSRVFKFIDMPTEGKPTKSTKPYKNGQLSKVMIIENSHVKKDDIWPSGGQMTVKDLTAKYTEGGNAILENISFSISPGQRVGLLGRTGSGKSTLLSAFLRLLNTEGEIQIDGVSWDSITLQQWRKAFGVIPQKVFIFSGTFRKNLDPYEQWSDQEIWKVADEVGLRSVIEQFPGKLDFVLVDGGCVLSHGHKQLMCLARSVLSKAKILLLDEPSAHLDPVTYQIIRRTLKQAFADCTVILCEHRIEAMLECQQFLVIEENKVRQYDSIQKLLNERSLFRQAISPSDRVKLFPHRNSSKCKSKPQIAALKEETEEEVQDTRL
Procedure, shortened: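 Short-circuit current was recorded at 37 °C under voltage clamp (0 mV) with amiloride 30 μM apically, forskolin 20 μM activation, then BPO/GlyH-101/inh-172 (20 μM each) to isolate CFTR current. Before recording, corrector exposure lasted 18–24 h with 18 μM tezacaftor, 20% human serum, and 33 nM (dose–response) or 44 nM (1 μM fixed) potentiator, maintained throughout.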

[3] = molecular target: T1, CFTR (F508del/MF-HBE cells); test: Ussing chamber assay of CFTR-mediated short-circuit currents, Assay B (0.00001 μM to 25 μM, 12 concentrations); assay type: cell-based; settings: with 33 nM potentiator and 18 μM Tezacaftor, 20% human serum; for Emax: 18-24 hours, read-out: B Max activity (%)
Protocol: Ussing chamber experiments were performed using human bronchial epithelial (HBE) cells derived from CF subjects heterozygous for F508del and a minimal function CFTR mutation (F508del/MF-HBE) and cultured as previously described (Neuberger T, Burton B, Clark H, Van Goor F Methods Mol Biol 2011:741:39-54). After four days the apical media was removed, and the cells were grown at an air liquid interface for >14 days prior to use.
To isolate the CFTR-mediated short-circuit (ISC) current, F508del/MF-HBE grown on Costar® Snapwell™ cell culture inserts were mounted in an Ussing chamber and the transepithelial ISC was measured under voltage-clamp recording conditions (Vhold=0 mV) at 37° C. The basolateral solution contained (in mM) 145 NaCl, 0.83 K2HPO4, 3.3 KH2PO4, 1.2 MgCl2, 1.2 CaCl2, 10 Glucose, 10 HEPES (pH adjusted to 7.4 with NaOH) and the apical solution contained (in mM) 145 NaGluconate, 1.2 MgCl2, 1.2 CaCl2, 10 glucose, 10 HEPES (pH adjusted to 7.4 with NaOH) and 30 μM amiloride to block the epithelial sodium channel. Forskolin (20 μM) was added to the apical surface to activate CFTR, followed by apical addition of a CFTR inhibitor cocktail consisting of BPO, GlyH-101, and CFTR inhibitor 172 (each at 20 μM final assay concentration) to specifically isolate CFTR currents. The CFTR-mediated ISC (μA/cm^2) for each condition was determined from the peak forskolin response to the steady-state current following inhibition.
The activity of the CFTR corrector compounds on the CFTR-mediated ISC was determined in Ussing chamber studies as described above. The F508del/MF-HBE cell cultures were either incubated with the corrector compounds at a range of concentrations in combination with 33 nM (6R,12R)-17-amino-12-methyl-6,15-bis(trifluoromethyl)-13,19-dioxa-3,4,18-triazatricyclo[12.3.1.12,5]nonadeca-1(18),2,4,14,16-pentaen-6-ol and 18 μM Tezacaftor or were incubated with the corrector compounds at a single fixed concentration of 1 μM in combination with 44 nM (6R,12R)-17-amino-12-methyl-6,15-bis(trifluoromethyl)-13,19-dioxa-3,4,18-triazatricyclo[12.3.1.12,5]nonadeca-1(18),2,4,14,16-pentaen-6-ol and 18 μM Tezacaftor for 18-24 hours at 37° C. and in the presence of 20% human serum. The concentration of corrector compounds with 44 nM or 33 nM (6R,12R)-17-amino-12-methyl-6,15-bis(trifluoromethyl)-13,19-dioxa-3,4,18-triazatricyclo[12.3.1.12,5]nonadeca-1(18),2,4,14,16-pentaen-6-ol and 18 μM Tezacaftor during the 18-24 hours incubations was kept constant throughout the Ussing chamber measurement of the CFTR-mediated ISC to ensure compounds were present throughout the entire experiment. The efficacy and potency of the putative F508del correctors was compared to that of the known Vertex corrector, (14S)-8-[3-(2-{Dispiro[2.0.2.1]heptan-7-yl}ethoxy)-1H-pyrazol-1-yl]-12,12-dimethyl-2λ^6-thia-3,9,11,18,23-pentaazatetracyclo[17.3.1.111,14.05,10]tetracosa-1(22),5,7,9,19(23),20-hexaene-2,2,4-trione, in combination with 18 μM Tezacaftor and 1 μM Ivacaftor.
• Assay A: 0.1 μM to 25 μM, 6 concentrations • Assay B: 0.00001 μM to 25 μM, 12 concentrations • Assay C: 0.026 μM to 25 μM, 6 concentrations • Assay D: Activity at single concentration of 1 μM

| Molecule | Emax [2] | pEC50 [2] | Emax [3] | pEC50 [3] | further results |
| --- | --- | --- | --- | --- | --- |
| Cc1cccc(C)c1-c1cc2nc(n1)NS(=O)(=O)c1cccc(c1)C(=O)N(Cc1ccn3nc(C(C)C)cc3n1)[C@H](CC1(C)CC1)CO2 |  |  |  |  | ring closure, yield after HPLC ([1]; from Cc1cccc(C)c1-c1cc(OC[C@@H](CC2(C)CC2)NCc2ccn3nc(C(C)C)cc3n2)nc(NS(=O)(=O)c2cccc(C(=O)O)c2)n1, 9.91 mM, 25.0 °C, 16.5 h): 43% |
| Cc1cccc(C)c1-c1cc2nc(n1)NS(=O)(=O)c1cccc(c1)C(=O)N(Cc1cnc3oc(C4CC4)cc3n1)C(CCC1(C)CC1)CO2 (single isomer, unassigned; isomer 1) |  |  |  |  | ring closure, yield after HPLC ([1]; from Cc1cccc(C)c1-c1cc(OCC(CCC2(C)CC2)NCc2cnc3oc(C4CC4)cc3n2)nc(NS(=O)(=O)c2cccc(C(=O)O)c2)n1, 12.8 mM, 24.5 h): 48% |
| Cc1cccc(C)c1-c1cc2nc(n1)NS(=O)(=O)c1cccc(c1)C(=O)N(Cc1cnc3oc(C4CC4)cc3n1)C(CCC1(C)CC1)CO2 (single isomer, unassigned) [Compound I-71, 12-[(6-cyclopropylfuro[2,3-b]pyrazin-2-yl)methyl]-6-(2,6-dimethylphenyl)-11-[2-(1-methylcyclopropyl)ethyl]-2,2-dioxo-9-oxa-2λ^6-thia-3,5,12,19-tetrazatricyclo[12.3.1.14,8]nonadeca-1(18),4(19),5,7,14,16-hexaen-13-one] | > 60% | > 6.00 | > 60% | 4.52 to 5.52 |  |
| (5P,11R)-6-[2-(cyclopentylmethyl)-6-methylphenyl]-11-(2,2-dimethylpropyl)-7-methyl-12-{[5-methyl-6-(propan-2-yl)-5H-pyrrolo[2,3-b]pyrazin-3-yl]methyl}-9-oxa-2λ^6-thia-3,5,12,19-tetraazatricyclo[12.3.1.1∧{4,8}]nonadeca-1(17),4(19),5,7,14(18),15-hexaene-2,2,13-trione |  |  |  |  | ring closure, yield after HPLC ([1]; 9.74 mM): 45% |
| Cc1cccc(C)c1-c1cc2nc(n1)NS(=O)(=O)c1cccc(c1)C(=O)N(Cc1cnc3oc(C(C)C)cc3n1)C(CCC(C)(C)F)CO2 (centres unmarked) |  |  |  |  | ring closure, yield after HPLC ([1]; from Cc1cccc(C)c1-c1cc(OCC(CCC(C)(C)F)NCc2cnc3oc(C(C)C)cc3n2)nc(NS(=O)(=O)c2cccc(C(=O)O)c2)n1, 35.1 mM, 16.0 h): 65% |
| (5P,11R)-7-methyl-6-[2-methyl-6-(2-methylpropyl)phenyl]-12-({5-methyl-6-[1-(trifluoromethyl)cyclopropyl]-5H-pyrrolo[2,3-b]pyrazin-3-yl}methyl)-11-[(propan-2-yloxy)methyl]-9-oxa-2λ^6-thia-3,5,12,19-tetraazatricyclo[12.3.1.1∧{4,8}]nonadeca-1(18),4(19),5,7,14,16-hexaene-2,2,13-trione |  |  |  |  | ring closure, yield after HPLC ([1]; 13.9 mM, 25.0 °C): 65% |
| Cc1cccc(C)c1-c1cc2nc(n1)NS(=O)(=O)c1cccc(c1)C(=O)N(Cc1nc3cc(C(C)C)oc3cc1F)[C@H](CC13CC(C1)C3)CO2 [Compound I-89] | > 60% | > 6.00 | > 60% | 5.52 to 6.00 |  |
| Cc1cccc(C)c1-c1cc2nc(n1)NS(=O)(=O)c1cccc(c1)C(=O)N(Cc1cnc3cc(C(C)(C)C)n(C)c3n1)[C@H](C1CCCO1)CO2 (single isomer, unassigned; isomer b) |  |  |  |  | ring closure, yield after HPLC ([1]; from Cc1cccc(C)c1-c1cc(OC[C@H](NCc2cnc3cc(C(C)(C)C)n(C)c3n2)C2CCCO2)nc(NS(=O)(=O)c2cccc(C(=O)O)c2)n1, 15.5 mM, 25.0 °C, 20.0 h): 55% |
| Cc1cccc(C)c1-c1cc2nc(n1)NS(=O)(=O)c1cccc(c1)C(=O)N(Cc1cnc3oc(C4CC4)cc3n1)[C@H](CC1CC1)CO2 [Compound I-103] | > 60% | > 6.00 | > 60% | 5.52 to 6.00 |  |
| Cc1cccc(C)c1-c1cc2nc(n1)NS(=O)(=O)c1cccc(c1)C(=O)N(Cc1cnc3oc(C4CC4)cc3n1)[C@H](CCC(C)(C)C)CO2 [Compound I-24] | > 60% | > 6.00 | > 60% | 5.52 to 6.00 |  |
| Cc1cccc(CC(C)C)c1-c1nc2nc(c1C)OC[C@@H](CC(C)(C)C)N(Cc1cnc3oc(C(C)C)cc3n1)C(=O)c1cccc(c1)S(=O)(=O)N2 (atropisomer, axis not shown) [Compound I-65] | > 60% | > 6.00 | > 60% | 5.52 to 6.00 |  |
| Cc1cccc(C)c1-c1cc2nc(n1)NS(=O)(=O)c1cccc(c1)C(=O)N(Cc1cnc3oc(C(C)C)cc3n1)[C@@H](CCC1(C)CC1)CO2 (stereo in doubt) [Compound I-70] | > 60% | > 6.00 | > 60% | 4.52 to 5.52 |  |
| (6P,11S)-12-({6-tert-butyl-5-methyl-5H-pyrrolo[2,3-b]pyrazin-3-yl}methyl)-7-methyl-6-[2-methyl-6-(2-methylpropyl)phenyl]-11-[(trifluoromethoxy)methyl]-9-oxa-2λ^6-thia-3,5,12,19-tetraazatricyclo[12.3.1.1∧{4,8}]nonadeca-1(17),4,6,8(19),14(18),15-hexaene-2,2,13-trione |  |  |  |  | ring closure, yield after HPLC ([1]; 8.87 mM, 25.0 °C): 36% |
| (5P,11R)-12-({6-tert-butyl-5-methyl-5H-pyrrolo[2,3-b]pyrazin-3-yl}methyl)-11-(2,2-dimethylpropyl)-7-methyl-6-[2-methyl-6-(2-methylpropyl)phenyl]-9-oxa-2λ^6-thia-3,5,12,19-tetraazatricyclo[12.3.1.1∧{4,8}]nonadeca-1(17),4(19),5,7,14(18),15-hexaene-2,2,13-trione |  |  |  |  | ring closure, yield after HPLC ([1]; 14.0 mM): 61% |
| Cc1cccc(C)c1-c1cc2nc(n1)NS(=O)(=O)c1cccc(c1)C(=O)N(Cc1cnc3oc(C(C)(C)COCc4ccccc4)cc3n1)[C@H](CC13CC(C1)C3)CO2 |  |  |  |  | ring closure, yield after HPLC ([1]; from Cc1cccc(C)c1-c1cc(OC[C@@H](CC23CC(C2)C3)NCc2cnc3oc(C(C)(C)COCc4ccccc4)cc3n2)nc(NS(=O)(=O)c2cccc(C(=O)O)c2)n1, 31.3 mM, 16.0 h): 69% |
| Cc1cccc(C)c1-c1cc2nc(n1)NS(=O)(=O)c1cccc(c1)C(=O)N(Cc1cnc3oc(C(C)C)cc3n1)[C@H](CC1CCC1)CO2 [Compound I-56] | > 60% | > 6.00 | > 60% | 5.52 to 6.00 |  |
| Cc1cccc(CC(C)C)c1-c1nc2nc(c1C)OC[C@@H](CC(C)(C)C)N(Cc1cnc3cc(C(C)C)n(C)c3n1)C(=O)c1cccc(c1)S(=O)(=O)N2 (atropisomer, axis not shown) [Compound I-82] | > 60% | > 6.00 | > 60% | > 6.00 |  |

Reference: patent US20250340574A1, “MODULATORS OF CYSTIC FIBROSIS TRANSMEMBRANE CONDUCTANCE REGULATOR” (Vertex Pharmaceuticals Incorporated, priority 2022, published 2025)
